Test results reported in BindingDB's records for doi:10.1016/j.cbi.2005.11.002 (Laboratoire De Pharmacologie-Toxicologie Inra, 2006).

Target: ATP-binding cassette sub-family C member 2 (Homo sapiens, UniProt Q92887)
Assay: TP_TRANSPORTER: inhibition of ATPase activity in Sf9 cells (membrane vesicles)

Chain of ATP-binding cassette sub-family C member 2 (Q92887 whole entry): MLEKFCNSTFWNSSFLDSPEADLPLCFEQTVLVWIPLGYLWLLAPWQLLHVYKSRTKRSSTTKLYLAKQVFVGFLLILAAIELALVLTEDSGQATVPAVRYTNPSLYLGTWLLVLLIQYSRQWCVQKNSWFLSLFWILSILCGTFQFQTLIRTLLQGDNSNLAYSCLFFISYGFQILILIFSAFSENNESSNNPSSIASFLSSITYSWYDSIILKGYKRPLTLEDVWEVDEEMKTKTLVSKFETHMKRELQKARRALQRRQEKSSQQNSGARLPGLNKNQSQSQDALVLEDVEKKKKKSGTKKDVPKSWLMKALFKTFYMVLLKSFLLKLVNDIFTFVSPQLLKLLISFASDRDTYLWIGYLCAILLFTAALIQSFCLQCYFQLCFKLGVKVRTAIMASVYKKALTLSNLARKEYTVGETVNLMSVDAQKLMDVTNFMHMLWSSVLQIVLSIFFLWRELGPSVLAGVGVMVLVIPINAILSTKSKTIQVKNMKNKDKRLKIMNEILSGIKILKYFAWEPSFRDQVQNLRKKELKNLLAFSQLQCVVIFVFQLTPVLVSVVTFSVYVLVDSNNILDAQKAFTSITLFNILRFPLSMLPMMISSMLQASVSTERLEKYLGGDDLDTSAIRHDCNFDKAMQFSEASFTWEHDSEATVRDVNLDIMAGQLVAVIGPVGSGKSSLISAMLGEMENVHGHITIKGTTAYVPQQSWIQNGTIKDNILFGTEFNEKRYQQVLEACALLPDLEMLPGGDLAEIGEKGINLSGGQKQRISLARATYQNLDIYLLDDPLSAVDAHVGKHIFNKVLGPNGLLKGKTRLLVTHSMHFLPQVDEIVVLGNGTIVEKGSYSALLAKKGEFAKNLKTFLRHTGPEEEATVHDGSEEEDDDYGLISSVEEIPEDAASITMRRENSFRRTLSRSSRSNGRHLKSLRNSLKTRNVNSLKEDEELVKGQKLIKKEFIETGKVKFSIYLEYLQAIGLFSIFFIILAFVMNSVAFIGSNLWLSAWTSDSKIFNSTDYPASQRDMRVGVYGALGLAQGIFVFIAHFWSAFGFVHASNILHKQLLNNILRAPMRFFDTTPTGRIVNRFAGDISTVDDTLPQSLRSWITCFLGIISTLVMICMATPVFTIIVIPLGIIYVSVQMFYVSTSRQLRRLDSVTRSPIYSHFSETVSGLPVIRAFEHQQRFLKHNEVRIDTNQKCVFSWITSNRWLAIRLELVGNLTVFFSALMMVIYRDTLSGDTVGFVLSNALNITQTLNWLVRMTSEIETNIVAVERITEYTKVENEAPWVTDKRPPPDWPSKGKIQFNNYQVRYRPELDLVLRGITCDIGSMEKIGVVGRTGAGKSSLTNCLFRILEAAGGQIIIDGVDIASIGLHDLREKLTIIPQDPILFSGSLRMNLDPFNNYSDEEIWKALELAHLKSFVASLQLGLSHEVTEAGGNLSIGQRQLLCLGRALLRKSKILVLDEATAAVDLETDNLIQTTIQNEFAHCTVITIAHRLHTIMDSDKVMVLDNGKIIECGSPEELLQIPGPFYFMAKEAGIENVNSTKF

For CC[C@H](C)[C@H]1O[C@]2(CC[C@@H]1C)C[C@@H]1C[C@@H](C/C=C(\C)[C@@H](O[C@H]3C[C@H](OC)[C@@H](O[C@H]4C[C@H](OC)[C@@H](O)[C@H](C)O4)[C@H](C)O3)[C@@H](C)/C=C/C=C3\CO[C@@H]4[C@H](O)C(C)=C[C@@H](C(=O)O1)[C@]34O)O2 [ABAMECTIN], the IC50 was 18 µM.
